Data from PMC5652740, “Inhibition of HIV-1 infection in humanized mice and metabolic stability of protein phosphatase-1-targeting small molecule 1E7-03” (Oncotarget, 2017).

Legend:
[1] = target: T1, Recombinant PP1 (human PP1α residues 7–300) (Homo sapiens, UniProt P62136); experiment: Surface plasmon resonance direct binding to immobilized PP1; conditions: SPR; for PP1 WT KD (M): 1:1 binding model, 25°C
T1 construct: human PP1α (residues 7–300); His; made in house; host or cells: BL21 (DE3) Escherichia coli, co-expressed with GroEL/GroES chaperones
Protocol: PP1 was purified as previously described. BL21 (DE3) Escherichia coli cells (Invitrogen, Carlsbad, CA, USA) were -transformed with a vector expressing human PP1α (residues 7–300) and pGR07, which expresses GroEL/[…] chaperones (both gifts from Dr Mathieu Bollen and Monique Beullens, KU Leuven, Belgium). The cells were grown in media supplemented with 1 mM MnCl2 at 30°C to an A600 =0.5. Arabinose (2 g per L) was added to induce expression of the GroEL/GroES chaperones. When A600 =1 was reached, the cells were transferred to 10°C and PP1 expression was induced with 0.1 mM Isopropyl β-D-1-thiogalactopyranoside for 20 hrs. Harvested cells were lysed using sonication in a solution containing in 50 mM Tris-HCl (pH 8.0), 5 mM imidazole, 700 mM NaCl, 1 mM MnCl2, 0.1% Triton X-100 (v/v) and protease inhibitors. His-tagged PP1 was purified using a Ni-NTA IMAC column (Qiagen, Valencia, CA, USA). Purified PP1 was dialyzed and stored at −70°C in 50 mM Tris-HCl (pH 8.0), 5 mM imidazole, 700 mM NaCl and 1 mM MnCl2. PP1 activity was then assayed as previously described.
The SPR measurements were conducted on Biacore T200 instrument (GE Healthcare, Piscataway, NJ) at 25°C. Recombinant PP1 was immobilized on a CM5 chip by amine coupling (GE Healthcare). PP1 (200 nM) was captured on flow cell 2 in 10 mM acetate buffer, pH 5.0, supplemented with 2 mM MnCl2. […] Flow cell 1 was used as a reference surface to subtract background signal. Also injections of the buffer alone were used to provide double reference subtraction. […] For binding and kinetics experiments, all compounds were diluted in the running buffer, at 40 μM, 20 μM, 10 μM, 5 μM, 2.5 μM, 1.25 μM and 0 μM and then passed over the two flow cells at a flow rate of 100 μl/min for 60 sec. The number of response units was recorded after the subtraction of the reference flow cell's value (Fc2-1). Two repetitions were performed for each injection. Data were analyzed using the BiaEvaluation software of Biacore with a 1:1 binding model. […] All the small molecular weight compounds were used at 1 μM.

HIV-1 env and gag mRNA = HIV-1 env and gag mRNA expression by real-time RT-PCR in infected CEM T cells; type: cell-based; conditions: 10 μM 1E7-03, DP1, DP3; 5 μM AZT, 3TC; in words
Protocol: For quantitative analysis of HIV-1 RNA, CEM T cells were infected with HIV-1-LUC-G virus. Cells were treated with 10 μM 1E7-03, 10 μM DP1, 10 μM DP3, 5 μM AZT or 5 μM 3TC and control cells were untreated or treated with DMSO. Total RNA was isolated using Trizol Reagent (Invitrogen, Carlsbad, CA) according to the manufacturer's protocol. Total RNA (100 ng) was reverse transcribed to cDNA using Superscript™ RT-PCR kit (Invitrogen, Carlsbad, CA). Hexamers and oligo-dT were used as primers. For real-time PCR analysis, cDNA was amplified using Roche LightCycler 480 (Roche Diagnostics) and SYBR Green1 Master mix (Roche Diagnostics). PCR was run for 45 cycles and each cycle included denaturation at 95°C for 10 seconds, annealing at 60°C for 10 seconds, and extension at 72°C for 10 seconds. Quantification of env and gag was carried using 18S RNA as a normalization standard. Quantification of housekeeping genes, β-actin and RSP13 was carried relative to 18S RNA. Mean Cp values were determined and ΔΔCt method was used to calculate relative expression levels. Unpaired t-test was used to test statistical significance.
The following primer sequences were used: env, forward - […], reverse-[…]; gag, forward- […], reverse- […]; β-actin, forward- […], reverse-[…]; RSP13, forward- […], reverse- […]; and 18SrRNA, forward- […], reverse- […].

[2] = Pharmacokinetic analysis in mice after i.p. injection; type: in vivo; conditions: male, BALB/cJ, ip, mouse plasma after i.p. 100 mg/kg DP1-07; for AUC(0-t) / MRT last / half-life / Tmax: parent and products DP1-07P1, DP1-07P2; for Cmax: parent and products DP1-07P1, DP1-07P2 (quantified with DP1 and DP3 calibration curves); for Tmax: mouse, plasma, 100 mg/kg
Protocol: The animal facilities and protocols were approved by Howard University Institutional Animal Care and Use Committee (IACUC). All experimental procedures were in accordance with the NIH Guidelines for the Care and Use of Laboratory Animals. BALB/cJ male mice (8 weeks old, 25–30 g) were purchased from Jackson Laboratory (Bar Harbor, ME, USA) and housed under pathogen-free conditions in HEPA-filtered cages and kept on a 12 h light/dark cycle. Compounds were administered to mice via intraperitoneal (i.p.) injection with maximum achievable doses of 30 mg/kg 1E7-03 (100 μl injection of 8 mM 1E7-03 in 80% DMSO/20% saline) and 100 mg/kg DP1-07 (100 μl injection of 100 mM DP1-07 in 40% propylene glycol/10% DMSO/50% saline). Blood samples were collected at different time points (15 min, 30 min, 1 hr, 3 hr, 6 hrs and 24 hrs) for each group (n=3 mice per group). For each sample, 20 μl of plasma was mixed with 80 μl cold acetone, and centrifuged at 13,000 rpm for 5 min. The supernatant was transferred to a clean test tube and dried in a SpeedVac concentrator. The residue was re-constituted in 50 μl of acetonitrile for LC-MS analysis. Calibration curves were prepared by spiking 1E7-03, DP1, DP3 and DP1-07 into the drug-free mouse plasma and subjected to similar sample extraction procedures. The plasma concentration–time profile of each analyte was constructed and pharmacokinetic parameters were determined by non-compartmental method using Phoenix WinNonlin Version 5.3 (Pharsight Corporation, Mountain View, CA).
A 10 μl aliquots from each sample were loaded to a LC-20AD nano HPLC system (Shimadzu Corporation, Columbia, MD, USA) coupled to LTQ XL Orbitrap mass spectrometer (Thermo Fisher Scientific) with the installed Xcalibur software (version 2.0.7, Thermo Fisher Scientific). Liquid chromatography was carried out on an in-house made nano-HPLC column (Polymicro Technologies Inc., Phoenix, AZ, USA) packed with reverse phase PolySulfoethyl A, 5μM, 200 Å (PolyLC Inc., Columbia, MD, USA). Mobile phase A was 0.1% formic acid in water and mobile phase B - 0.1% formic acid in acetonitrile. The elution was performed at a flow rate of 600 nl/min over 40 min using a multisegment linear gradient of mobile phase B as follows: 0–6.02 min, 1% B; 6.02–6.11 min, 1–2% B; 6.11–20 min, 2−80% B; 20–25 min, 80% B; 25–30 min, 80–85% B; 30–31 min, […]; 31–40 min, 2% B (v/v). The Orbitrap was operated under data-dependent acquisition mode. The spray voltage, capillary temperature and capillary voltage were set to 2.0 kV, 200 °C, and 39.5 V, respectively. Full-scan mass spectra were acquired in Orbitrap over 150−1500 m/z with a resolution of 30 000, followed by MS^n scans by CID activation mode. The precursor ions were fragmented with collision energy of 18 with activation Q of 0.25 and an activation time of 30 ms. Dynamic exclusion was enabled with a repeat count of 2, a repeat duration of 15 s, exclusion duration of 20 s, an exclusion list size of 50. The mass spectrometer was also operated in NL scan of m/z 18.01, 45.05, 71.03 and 72.02 and MRM mode. The MRM transitions were controlled by a segmented program in order to short the scan cycle and increase sensitivity.

T1 sequence (P62136 7-300): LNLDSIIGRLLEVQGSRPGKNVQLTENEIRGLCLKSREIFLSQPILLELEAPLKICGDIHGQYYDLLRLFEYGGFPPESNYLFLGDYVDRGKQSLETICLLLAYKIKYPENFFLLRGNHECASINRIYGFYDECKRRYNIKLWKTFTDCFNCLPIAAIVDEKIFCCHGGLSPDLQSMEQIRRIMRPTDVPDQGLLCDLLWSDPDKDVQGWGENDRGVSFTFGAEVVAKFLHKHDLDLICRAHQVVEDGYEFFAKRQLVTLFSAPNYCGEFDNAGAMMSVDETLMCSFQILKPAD

Compound: CC[C@H](C)[C@H](NC(=O)[C@H](Cc1ccccc1)NC(=O)[C@H](CS)NC(=O)[C@@H](NC(=O)[C@H](CCC(N)=O)NC(=O)[C@H](CS)NC(=O)[C@H](Cc1c[nH]cn1)NC(=O)[C@H](Cc1ccccc1)NC(=O)[C@H](CS)NC(=O)[C@H](CS)NC(=O)[C@H](CCCCN)NC(=O)[C@H](CCCCN)NC(=O)[C@H](CCCNC(=N)N)NC(=O)[C@H](CC(C)C)NC(=O)[C@@H]1CCCN1C(=O)[C@H](CO)NC(=O)[C@H](CO)NC(=O)[C@@H]1CCCN1C(=O)[C@H](Cc1ccccc1)NC(=O)[C@H](CCCCN)NC(=O)[C@H](Cc1ccc(O)cc1)NC(=O)[C@@H]1CCCN1C(=O)[C@H](COP(=O)(O)O)NC(=O)[C@H](CCCNC(=N)N)NC(=O)[C@@H]1CCCN1C(=O)[C@@H](NC(=O)[C@@H](N)Cc1c[nH]cn1)[C@@H](C)CC)C(C)C)C(=O)N[C@H](C(=O)N[C@@H](CCCCN)C(=O)O)[C@@H](C)O [pRb-Tat, reference compound]
- times higher binding ability than 1E7-03, DP1 and DP3 [1]: 20-40 times

Compound: Cc1cn([C@H]2C[C@H](N=[N+]=[N-])[C@@H](CO)O2)c(=O)[nH]c1=O [AZT, azidothymidine, reference compound]
- HIV-1 env mRNA expression (HIV-1 env and gag mRNA): strong inhibition
- HIV-1 gag mRNA expression (HIV-1 env and gag mRNA): strong inhibition

Compound: COc1ccc(/C=C2\CCCc3c2nc2ccccc2c3C(=O)O)cc1OC [DP1-07P2]
- AUC(0-t) [2]: 288 µM·h
- MRT last [2]: 8.86 h
- half-life [2]: 4.66 h
- Cmax [2]: 23.7 µM
- Tmax [2]: 6 h

Compound: pRb-Tat mutant: mutant pRb-Tat peptide with QACA mutation in the RVxF motif (HIPRSPYKFPSSPLRKKCCFHCQACAITK) [reference compound]
- PP1 WT KD (M) [1]: No binding
- PP1 WT KD (M) ([1]; listed as mutant pRb-Tat): did not bind

Compound: COc1ccc(/C=C2\CCCc3c2nc2ccccc2c3C(=O)OC(C)C(=O)O)cc1OC (centres unmarked) [DP1-07P1]
- AUC(0-t) [2]: 124 µM·h
- MRT last [2]: 10.5 h
- half-life [2]: 13.4 h
- Cmax [2]: 7.54 µM
- Tmax [2]: 6 h

Compound: Nc1ccn([C@@H]2CS[C@H](CO)O2)c(=O)n1 [3TC, lamivudine, reference compound]
- HIV-1 env mRNA expression (HIV-1 env and gag mRNA): strong inhibition
- HIV-1 gag mRNA expression (HIV-1 env and gag mRNA): strong inhibition
